Laboratory results published in US12404241B2 (Celgene Corporation, priority 2018, dated 2025).
Where a name gives a salt, the structure may show the parent alone. Read-outs that look alike come from different tables or passages of the source.

Target: T1, AR (Homo sapiens, UniProt P10275)
T1 construct: endogenous in cells; host or cells: VCaP cells
T1 sequence (P10275 1-920): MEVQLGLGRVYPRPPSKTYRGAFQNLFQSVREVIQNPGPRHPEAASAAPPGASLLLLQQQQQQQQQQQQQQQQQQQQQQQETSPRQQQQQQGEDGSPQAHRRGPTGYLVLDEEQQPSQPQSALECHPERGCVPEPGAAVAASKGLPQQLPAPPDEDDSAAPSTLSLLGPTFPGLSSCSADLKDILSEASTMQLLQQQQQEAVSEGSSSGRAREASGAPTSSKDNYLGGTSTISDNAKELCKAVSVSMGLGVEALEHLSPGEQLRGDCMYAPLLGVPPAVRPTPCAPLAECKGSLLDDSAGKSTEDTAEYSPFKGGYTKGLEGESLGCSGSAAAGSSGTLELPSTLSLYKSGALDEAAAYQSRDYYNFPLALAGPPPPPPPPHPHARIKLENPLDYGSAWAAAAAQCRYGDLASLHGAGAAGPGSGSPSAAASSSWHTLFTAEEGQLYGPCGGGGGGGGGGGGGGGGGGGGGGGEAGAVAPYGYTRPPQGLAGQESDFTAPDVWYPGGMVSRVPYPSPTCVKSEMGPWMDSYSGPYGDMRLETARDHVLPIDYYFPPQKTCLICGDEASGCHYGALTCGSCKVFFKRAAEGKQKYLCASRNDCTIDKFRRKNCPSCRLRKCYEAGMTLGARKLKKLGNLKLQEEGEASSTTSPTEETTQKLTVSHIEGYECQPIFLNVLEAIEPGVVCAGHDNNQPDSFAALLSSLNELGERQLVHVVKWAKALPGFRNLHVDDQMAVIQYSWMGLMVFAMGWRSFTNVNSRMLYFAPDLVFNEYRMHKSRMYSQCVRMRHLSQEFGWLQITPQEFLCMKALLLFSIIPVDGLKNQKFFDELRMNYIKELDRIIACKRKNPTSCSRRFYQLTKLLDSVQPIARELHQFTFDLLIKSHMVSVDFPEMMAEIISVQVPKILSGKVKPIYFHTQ
Experiment: VCAP AR Degradation Assay
Assay type: cell-based
Conditions: for Y (AR degradation efficiency, % of DMSO control): class symbols *; for DC50: class symbols A-C
Procedure, shortened: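 Compounds were plated as 10-point 1:3 series reaching 5 μM final, then VCaP cells were seeded onto them and incubated 24 h at 37 °C. Cells were lysed cold, and total AR was measured by sandwich ELISA relative to 0.1% DMSO wells.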

Structure (SMILES)	Y (AR degradation efficiency, % of DMSO control)	DC50 (read-out: DC50)	DC50
CCc1cc(N2C(=S)N(c3ccc(C#N)c(C(F)(F)F)c3)C(=O)C2(C)C)ccc1O[C@H](C)CN1C[C@@H](C)N(CC(=O)Nc2cccc(NC3CCC(=O)NC3=O)c2)[C@@H](C)C1 (single isomer, unassigned) [Example 241]	* (0<Y<=25%)	100 to 500 nM	–
C[C@@H]1CN(CC(=O)Nc2cc(C#N)cc(NC3CCC(=O)NC3=O)c2)[C@H](C)CN1CCOc1ccc(N2C(=S)N(c3cnc(C#N)c(C(F)(F)F)c3)C(=O)C2(C)C)cc1C(C)(F)F (stereo partly drawn) [Example 243, N-(3-cyano-5-(2,6-dioxopiperidin-3-ylamino)phenyl)-2-((2R,5R)-4-(2-(4-(3-(6-cyano-5-(trifluoromethyl)pyridin-3-yl)-5,5-dimethyl-4-oxo-2-thioxoimidazolidin-1-yl)-2-(1,1-difluoroethyl)phenoxy)ethyl)-2,5-dimethylpiperazin-1-yl)acetamide]	* (0<Y<=25%)	< 100 nM	–
CCc1cc(N2C(=S)N(c3cnc(C#N)c(C(F)(F)F)c3)C(=O)C23CCC3)ccc1OCCN1C[C@H]2CC[C@@H]1CN2CC(=O)Nc1cccc(NC2CCC(=O)NC2=O)c1 (stereo partly drawn) [Example 182, 2-((1R,4R)-5-(2-(4-(7-(6-cyano-5-(trifluoromethyl)pyridin-3-yl)-8-oxo-6-thioxo-5,7-diazaspiro[3.4]octan-5-yl)-2-ethylphenoxy)ethyl)-2,5-diazabicyclo[2.2.2]octan-2-yl)-N-(3-(2,6-dioxopiperidin-3-ylamino)phenyl)acetamide]	** (25%<Y<=35%)	100 to 500 nM	–
CC1(C)C(=O)N(c2ccc(C#N)c(C(F)(F)F)c2)C(=S)N1c1ccc(OCCN2CCN(CC(=O)Nc3cc(Cl)cc(NC4CCC(=O)NC4=O)c3)CC2)c(F)c1 (stereo not drawn) [Example 4, hydrochloride]	* (0<Y<=25%)	< 100 nM	–
CCc1cc(N2C(=S)N(c3ccc(C#N)c(C(F)(F)F)c3)C(=O)C2(C)C)ccc1OCCN1CCN(CC(=O)Nc2cc(NC3CCC(=O)NC3=O)ccc2Cl)CC1 (stereo not drawn) [Example 41, hydrochloride]	* (0<Y<=25%)	< 100 nM	–
CC(C)c1cc(N2C(=S)N(c3cnc(C#N)c(C(F)(F)F)c3)C(=O)C2(C)C)ccc1OCCN1CCN(CC(=O)Nc2cccc(NC3CCC(=O)NC3=O)c2)[C@H](C(F)(F)F)C1 (stereo partly drawn) [Example 256, 2-((S)-4-(2-(4-(3-(6-cyano-5-(trifluoromethyl)pyridin-3-yl)-5,5-dimethyl-4-oxo-2-thioxoimidazolidin-1-yl)-2-isopropylphenoxy)ethyl)-2-(trifluoromethyl)piperazin-1-yl)-N-(3-(2,6-dioxopiperidin-3-ylamino)phenyl)acetamide]	** (25%<Y<=35%)	100 to 500 nM	–
CCc1cc(N2C(=S)N(c3cnc(C#N)c(C(F)(F)F)c3)C(=O)C2(C)C)ccc1OCCN1CCN(C2(C(=O)Nc3cc(Cl)cc(NC4CCC(=O)NC4=O)c3)CC2)CC1 (stereo not drawn) [Example 165, N-(3-chloro-5-(2,6-dioxopiperidin-3-ylamino)phenyl)-1-(4-(2-(4-(3-(6-cyano-5-(trifluoromethyl)pyridin-3-yl)-5,5-dimethyl-4-oxo-2-thioxoimidazolidin-1-yl)-2-ethylphenoxy)ethyl)piperazin-1-yl)cyclopropanecarboxamide]	* (0<Y<=25%)	< 100 nM	–
CCc1cc(N2C(=S)N(c3cnc(C#N)c(C(F)(F)F)c3)C(=O)C2(C)C)ccc1OCCN1CC2CCC(C1)N2CC(=O)Nc1cccc(NC2CCC(=O)NC2=O)c1 (stereo not drawn) [Example 178, 2-(3-(2-(4-(3-(6-cyano-5-(trifluoromethyl)pyridin-3-yl)-5,5-dimethyl-4-oxo-2-thioxoimidazolidin-1-yl)-2-ethylphenoxy)ethyl)-3,8-diazabicyclo[3.2.1]octan-8-yl)-N-(3-(2,6-dioxopiperidin-3-ylamino)phenyl)acetamide]	** (25%<Y<=35%)	–	< 100 nM
CCc1cc(N2C(=S)N(c3ccc(C#N)c(C(F)(F)F)c3)C(=O)C2(C)C)ccc1OCCN1C[C@@H](C)N(CC(=O)Nc2cc(C#N)cc(NC3CCC(=O)NC3=O)c2)C[C@H]1C (stereo partly drawn) [Example 181, 2-((2R,5R)-4-(2-(4-(3-(4-cyano-3-(trifluoromethyl)phenyl)-5,5-dimethyl-4-oxo-2-thioxoimidazolidin-1-yl)-2-ethylphenoxy)ethyl)-2,5-dimethylpiperazin-1-yl)-N-(3-cyano-5-(2,6-dioxopiperidin-3-ylamino)phenyl)acetamide]	* (0<Y<=25%)	< 100 nM	–
CCc1cc(N2C(=S)N(c3cnc(C#N)c(C(F)(F)F)c3)C(=O)C2(C)C)ccc1OCCN1C[C@H]2CC[C@@H]1CN2CC(=O)Nc1cc(Cl)cc(NC2CCC(=O)NC2=O)c1 (stereo partly drawn) [Example 184, N-(3-chloro-5-(2,6-dioxopiperidin-3-ylamino)phenyl)-2-((1R,4R)-5-(2-(4-(3-(6-cyano-5-(trifluoromethyl)pyridin-3-yl)-5,5-dimethyl-4-oxo-2-thioxoimidazolidin-1-yl)-2-ethylphenoxy)ethyl)-2,5-diazabicyclo[2.2.2]octan-2-yl)acetamide]	** (25%<Y<=35%)	100 to 500 nM	–
CCc1cc(N2C(=S)N(c3ccc(C#N)c(C(F)(F)F)c3)C(=O)C2(C)C)ccc1OCCN1CCN(CC(=O)Nc2cc(Cl)cc(NC3CCC(=O)NC3=O)c2)C(C)(C)C1 (stereo not drawn) [Example 79, N-(3-chloro-5-(2,6-dioxopiperidin-3-ylamino)phenyl)-2-(4-(2-(4-(3-(4-cyano-3-(trifluoromethyl)phenyl)-5,5-dimethyl-4-oxo-2-thioxoimidazolidin-1-yl)-2-ethylphenoxy)ethyl)-2,2-dimethylpiperazin-1-yl)acetamide]	** (25%<Y<=35%)	< 100 nM	–
CCc1cc(N2C(=S)N(c3ccc(C#N)c(C(F)(F)F)c3)C(=O)C2(C)C)cnc1OCCN1C[C@@H](C)N(CC(=O)Nc2cc(Cl)cc(NC3CCC(=O)NC3=O)c2)C[C@H]1C (stereo partly drawn) [Example 189, N-(3-chloro-5-(2,6-dioxopiperidin-3-ylamino)phenyl)-2-((2R,5R)-4-(2-(5-(3-(4-cyano-3-(trifluoromethyl)phenyl)-5,5-dimethyl-4-oxo-2-thioxoimidazolidin-1-yl)-3-ethylpyridin-2-yloxy)ethyl)-2,5-dimethylpiperazin-1-yl)acetamide]	* (0<Y<=25%)	< 100 nM	–
C[C@@H]1CN(CCOc2ccc(N3C(=S)N(c4cnc(C#N)c(C(F)(F)F)c4)C(=O)C3(C)C)cc2C(C)(F)F)C[C@H](C)N1CC(=O)Nc1cccc(NC2CCC(=O)NC2=O)c1 (stereo partly drawn) [Example 255, 2-((2S,6R)-4-(2-(4-(3-(6-cyano-5-(trifluoromethyl)pyridin-3-yl)-5,5-dimethyl-4-oxo-2-thioxoimidazolidin-1-yl)-2-(1,1-difluoroethyl)phenoxy)ethyl)-2,6-dimethylpiperazin-1-yl)-N-(3-(2,6-dioxopiperidin-3-ylamino)phenyl)acetamide]	* (0<Y<=25%)	< 100 nM	–
C[C@@H]1CN(CCOc2ncc(N3C(=S)N(c4ccc(C#N)c(C(F)(F)F)c4)C(=O)C3(C)C)cc2C2CC2)C[C@H](C)N1CC(=O)Nc1cccc(NC2CCC(=O)NC2=O)c1 (stereo partly drawn) [Example 228, 2-((2S,6R)-4-(2-(5-(3-(4-cyano-3-(trifluoromethyl)phenyl)-5,5-dimethyl-4-oxo-2-thioxoimidazolidin-1-yl)-3-cyclopropylpyridin-2-yloxy)ethyl)-2,6-dimethylpiperazin-1-yl)-N-(3-(2,6-dioxopiperidin-3-ylamino)phenyl)acetamide]	* (0<Y<=25%)	< 100 nM	–
CC1(C)C(=O)N(c2cnc(C#N)c(C(F)(F)F)c2)C(=S)N1c1ccc(OCCN2CCN(CC(=O)Nc3cc(Cl)cc(NC4CCC(=O)NC4=O)c3)CC2)c(C2CC2)c1 (stereo not drawn) [Example 84, N-(3-chloro-5-(2,6-dioxopiperidin-3-ylamino)phenyl)-2-(4-(2-(4-(3-(6-cyano-5-(trifluoromethyl)pyridin-3-yl)-5,5-dimethyl-4-oxo-2-thioxoimidazolidin-1-yl)-2-cyclopropylphenoxy)ethyl)piperazin-1-yl)acetamide]	* (0<Y<=25%)	< 100 nM	–
